≈ marks a conversion by molar mass, not a printed value. Where “and” joins values, the source holds several entries; their conditions need not be identical. Equal values may be shown once. Read-outs that look alike come from different tables or passages of the source.
Tests used:
[1] = Solubility according to the Chinese Pharmacopoeia, 2015 edition; assay type: physicochemical; details: for Solubility in Acetonitrile: solvent acetonitrile; for Solubility in Acetonitrile:water 45:55: solvent acetonitrile:water 45:55; for Solubility in Cloroform: solvent chloroform; for Solubility in Ethyl acetate: solvent ethyl acetate; for Solubility in Water: solvent water
Description: Solubility is a physical property of the drug. The reaction was performed according to the Chinese Pharmacopoeia, 2015 edition.

[2] = Nitrite scavenging activity, diazo coupling spectrophotometric method (in vitro anti-tumour experiment)
Text: Numerous methods for nitrite clearance have been reported, such as spectrophotometric, chromatographic-mass spectrometric, electrochemical, and fluorescence methods. Considering various factors, we decided to use diazo coupling spectrophotometry to perform this experiment. […] On the other hand, it may be that ARG-V also has the ability to bind nitrite such that the nitrite content decreased, achieving the purpose of clearing nitrite.
Our team has studied the […] scavenging activity of ARG and ARG-V using diazo coupling spectrophotometric method.

[3] = tested on: H22 hepatocellular carcinoma; experiment: In vivo anti-tumour experiment in H22 tumour-bearing mice (tumour growth, body weight, immune organ indexes); details: 14 days
Text: SPF (specific pathogen free) grade, male ICR mice with body weights ranging from 19 to 21 g were obtained from the Laboratory Animal Quality Testing Center of Jilin Province. The ICR mice were divided into 7 groups as follows: the normal group, the model group, the cyclophosphamide (CTX) group, the ARG group, the high dose ARG-V group, the middle dose ARG-V group and the low dose ARG-V group. H22 hepatocarcinoma cells were purchased from the Institute of Biochemistry and Cell Biology, CAS.
(§1) To prepare the ascitic tumour-bearing model, 0.2 mL of the cell suspension (1 × 10^5 cells/mouse) was injected into the shoulder of the right limb subcutaneously in each mouse. Twenty-four hours after the tumour inoculation with H22 cells, the ICR mice were divided into 7 groups as follows: the normal group, the model group, the cyclophosphamide (CTX) group, the ARG group, the high dose ARG-V group, the middle dose ARG-V group, and the low dose ARG-V group. The positive control group received CTX at a dosage of 25 mg/kg by intraperitoneal injection. The model group and the normal group were treated with the same amount of normal saline by P.O. once a day. The mice were given an ARG suspension solution mixed with sodium carboxymethyl cellulose at a daily dose of 40 mg/kg, and ARG-V dissolved in saline at different dosages was administered orally. The mice in each group were treated continuously for 14 days. Before and after each drug administration, the size of the tumours were measured, and the weights of the mice were recorded. Twenty-four hours after the last administration, the mice were killed by cervical dislocation, and blood samples were collected from the eyes of the mice. The tumour, spleen, and thymus of the mice were taken out and weighed on an electronic balance.

H22 tumour-bearing mice = experiment: Serum ALT, AST, BUN and CRE in H22 tumour-bearing mice; details: for BUN / CRE: Fig. 2(b); for Serum ALT / Serum AST: Fig. 2(a)
Description: as §1
AST and ALT are clinical indexes of liver function, used in medicine to judge whether the liver is damaged. BUN and CRE are used to judge whether the kidney is damaged. They were analysed by a commercially available reagent kit according to the instructions.

[4] = Pharmacokinetics after oral (intragastric) administration to rats, plasma ARG by HPLC, 3P97 fit; assay type: in vivo, Wistar rats; details: for AUC / CL/F(s): intragastric, X ± SD, n = 6; for AUC value: oral
Description: Male Wistar rats (8 weeks, 230–250 g) were purchased from Liaoning Changsheng Biotechnology Co., Ltd. (Certificate No. SCXK-2015-0001) and acclimated to the laboratory environment for 1 week.
After the frozen plasma thawed, a 0.2 mL rat plasma sample was placed in an Eppendorf tube containing 5 µL of the IS working solution and 1 mL of acetonitrile with 0.1% formic acid and mixed evenly with a turbine mixer for 3 minutes. It was then separated by centrifugation (12000 rpm, 10 min, 4 °C). The supernatant was withdrawn and evaporated to dryness under N2. The dry residue was reconstituted by mixing it with 50 μL of acetonitrile for 1 minute and separated by centrifugation (16000 rpm, 5 min, 4 °C), and a 20 μL aliquot was injected into the HPLC system for analysis.
The rats received ARG and ARG-V by oral administration. Blood samples were obtained via the oculi chorioideae vein before oral administration and at 1, 3, 5, 10, 15, 30, 45, 60, 90, 120, 150, 180, 240, and 360 min after administration. The whole blood samples were separated by centrifugation (8000 rpm, 10 min), and the plasma was obtained and stored at −20 °C until analysis.
Analytes were separated on a Thermo BDS HYPERSIL C18 column (4.6 × 250 mm, 5 μm) at a flow rate of 1.0 mL/min. The column was maintained at 30 °C. The mobile phase consisted of acetonitrile and 0.1% formic acid water (45:55 v/v). Detection was done at a wavelength of 280 nm.
The values are presented as the mean ± standard deviation (SD). The concentration-time curve was drawn, and data were processed using the 3P97 software.

[5] = Stability of ARG QC samples in rat plasma; assay type: in vitro ADME; details: three concentrations; room temperature 12 hours, −20 °C for a month, three freeze-thaw cycles
Description: The ARG stock solution was diluted with plasma to make quality control (QC) samples, and the QC samples were prepared at three concentrations of low, medium and high (0.02, 0.1, and 2 μg/mL). The QC samples were kept at room temperature for 12 h, and freeze-thaw cycles were repeated 3 times. The QC samples were kept at −20 °C for 30 days.

Beagle dogs = tested on: Beagle dogs; design: method as in earlier work; details: cited from earlier work
[6] = design: method as in PMID 27685612; details: patients with advanced pancreatic cancer refractory to gemcitabine; second peaks indicate enterohepatic circulation; cited from earlier work
[7] = tested on: serum cytokines TNF-α, IL-2, VEGF; experiment: Serum cytokines (TNF-α, IL-2, VEGF) by ELISA in H22 tumour-bearing mice; assay type: in vivo, ICR mice; details: for Expression level of IL-2: compared to the tumour model group; for Expression level of IL-2 / Serum TNF-α level: Fig. 2(c); for Serum VEGF: Fig. 2(d)
Description: as §1
The serum levels of the cytokines IL-2, IL-6, VEGF and TNF-α were analysed using a commercially available ELISA kit according to the manufacturer’s instruction.

[8] = concentration 0.125 mg/mL, in % (unit assumed)
[9] = concentration 0.25 mg/mL, in % (unit assumed)
[10] = concentration 0.5 mg/mL, in % (unit assumed)
[11] = concentration 1 mg/mL, in % (unit assumed)
[12] = concentration 2 mg/mL, in % (unit assumed)
[13] = concentration 4 mg/mL, in % (unit assumed)
[14] = 40 mg/kg oral daily, mean ± SD, n = 8
[15] = first of three concentrations (low dosage)
[16] = second of three concentrations (middle dosage)
[17] = third of three concentrations (high dosage)
[18] = 25 mg/kg intraperitoneal, mean ± SD, n = 8

| Compound | Solubility in Acetonitrile [1] | Solubility in Acetonitrile:water 45:55 [1] | Solubility in Cloroform [1] | Solubility in Ethyl acetate [1] | Solubility in Water [1] | IC50 (nitrite scavenging) [2] | Clearance rate on nitrite [2, 8] | Clearance rate on nitrite [2, 9] | Clearance rate on nitrite [2, 10] | Clearance rate on nitrite [2, 11] | Clearance rate on nitrite [2, 12] | Clearance rate on nitrite [2, 13] | Inhibitory rate ([3]; 40 mg/kg oral daily) | Tumor weight [3, 14] | BUN (H22 tumour-bearing mice; compared to the CTX group) | Serum ALT (H22 tumour-bearing mice; compared to the model group) | Serum AST (H22 tumour-bearing mice; compared to the model group) | AUC value [4, 15] | AUC value [4, 16] | AUC value [4, 17] | also measured |
| --- | --- | --- | --- | --- | --- | --- | --- | --- | --- | --- | --- | --- | --- | --- | --- | --- | --- | --- | --- | --- | --- |
| COc1cc(C[C@H]2C(=O)OC[C@@H]2Cc2ccc(OC)c(OC)c2)ccc1O [ARG, Arctigenin] | very soluble | very soluble | freely soluble | freely soluble | almost insoluble | 17490 µg/mL (≈ 47 mM) | 17.60 ± 0.02 | 23.41 ± 0.02 | 27.72 ± 0.03 | 31.09 ± 0.02 | 34.46 ± 0.02 | 39.14 ± 0.07 | 26.26% | 1.32 ± 0.34 g | no significant difference | decreased | decreased | 228 ng·h/mL | 316 ng·h/mL | 424 ng·h/mL | CRE (H22 tumour-bearing mice; compared to the CTX group): no significant difference; AUC ([4]; high dosage): 25419.859 ± 5497.001 (ng/mL)*min; CL/F(s) ([4]; high dosage): 0.009 ± 0.003 mg/kg/min/(ng/mL); AUC ([4]; low dosage): 13687.547 ± 3050.502 (ng/mL)*min; CL/F(s) ([4]; low dosage): 0.004 ± 0.001 mg/kg/min/(ng/mL); AUC ([4]; middle dosage): 18971.963 ± 5515.267 (ng/mL)*min; CL/F(s) ([4]; middle dosage): 0.006 ± 0.003 mg/kg/min/(ng/mL); Stability in rat plasma QC samples [5]: good results; Toxicity in Beagle dogs (Beagle dogs; 60 mg/kg group, subcutaneous injection, except the stimulus response at the administration location): no overt toxicity; Toxicity in Beagle dogs (Beagle dogs; repeated subcutaneous injection of large doses): can induce injury to the liver and biliary duct; Form of ARG in patients [6]: exists as arctigenin glucuronide (AGG) |
| O=P1(N(CCCl)CCCl)NCCCO1 (stereo not drawn) [CTX, Cyclophosphamide] | – | – | – | – | – | – | – | – | – | – | – | – | – | – | – | obviously increased | obviously increased | – | – | – | Increase of body weight ([3]; 25 mg/kg intraperitoneal): 4.37 g; Inhibitory rate ([3]; 25 mg/kg intraperitoneal): 72.06%; Spleen index [3, 18]: 4.40 ± 0.40 mg/g; Thymus index [3, 18]: 1.24 ± 0.20 mg/g; Tumor weight [3, 18]: 0.50 ± 0.11 g; Expression level of IL-2 [7]: obviously decreased; Serum TNF-α level ([7]; compared with the model group): significantly decreased; Serum VEGF ([7]; compared with the model group): decreased significantly |
| COc1ccc(CC2COC(=O)C2Cc2ccc(OC(=O)C(N)C(C)C)c(OC)c2)cc1OC (stereo not drawn) [ARG-V] | slight soluble | very soluble | freely soluble | almost insoluble | freely soluble | 2190 µg/mL (≈ 4.64 mM) | 20.22 ± 0.00 | 27.90 ± 0.05 | 35.21 ± 0.07 | 45.51 ± 0.01 | 64.04 ± 0.01 | 69.10 ± 0.04 | 69.2% and 69.27% | 0.55 ± 0.15^**,aa g | significant difference | decreased | decreased | 253 ng·h/mL | 391 ng·h/mL | 574 ng·h/mL | Increase of nitrite removal ability compared with ARG ([2]; concentration 4 mg/mL): more than 75%; Inhibitory rate ([3]; 20 mg/kg oral daily): 42.46%; Tumor weight ([3]; 20 mg/kg oral daily, mean ± SD, n = 8): 1.03 ± 0.19^**,##,a g; Inhibitory rate ([3]; 80 mg/kg oral daily): 63.13%; Tumor weight ([3]; 80 mg/kg oral daily, mean ± SD, n = 8): 0.66 ± 0.17^**,#,aa g; BUN (H22 tumour-bearing mice; compared to the model group): decreased significantly; CRE (H22 tumour-bearing mice; compared to the model group): decreased significantly; Expression level of IL-2 [7]: significantly higher; Serum VEGF ([7]; compared with the model group): decreased; Serum TNF-α level ([7]; three doses, compared with the CTX group): increased significantly |
| O=C1O[C@H]([C@@H](O)CO)C(O)=C1O [VC] | – | – | – | – | – | 690 µg/mL (≈ 3.92 mM) | – | – | – | – | – | – | – | – | – | – | – | – | – | – | Clearance rate on nitrite ([2]; concentration 0.125 mg/mL): 7.30 ± 0.06; Clearance rate on nitrite ([2]; concentration 0.25 mg/mL): 17.23 ± 0.00; Clearance rate on nitrite ([2]; concentration 0.5 mg/mL): 25.84 ± 0.03; Clearance rate on nitrite ([2]; concentration 1 mg/mL): 54.49 ± 0.02; Clearance rate on nitrite ([2]; concentration 2 mg/mL): 96.32 ± 0.00; Clearance rate on nitrite ([2]; concentration 4 mg/mL): 97.75 ± 0.00 |

— article PMC5818482, “Experimental study of the anti-tumour activity and pharmacokinetics of arctigenin and its valine ester derivative” (Scientific Reports, 2018)
